Each structure is given as a SMILES string.

One may read the melting point as the temperature of the solid-liquid transition. In turn, `CC(C(=O)NCC(F)(F)C(F)(F)F)C(=O)N[C@@H]1C(=O)Nc2cc(F)ccc2O[C@@H]1C` (stereo partly drawn) [Example 23, N-((6R,7S)-2-Fluoro-6-methyl-8-oxo-6,7,8,9-tetrahydro-5-oxa-9-aza-benzocyclohepten-7-yl)-2-methyl-N′-(2,2,3,3,3-pentafluoro-propyl)-malonamide] gave a melting point of 215 to 216 °C.
On to `CCN1C(=O)[C@@H](NC(=O)C(C)C(=O)NCC(F)(F)C(F)(F)F)COc2ccccc21` (stereo partly drawn) [Example 14, N-((S)-9-Ethyl-8-oxo-6,7,8,9-tetrahydro-5-oxa-9-aza-benzocyclohepten-7-yl)-2-methyl-N′-(2,2,3,3,3-pentafluoro-propyl)-malonamide], for which the melting point was found to be 152 °C.
`CC(C(=O)NCC(F)(F)C(F)(F)F)C(=O)N[C@@H]1C(=O)N(C)c2c(F)cccc2O[C@@H]1C` (stereo partly drawn) [Example 37, N-((6R,7S)-1-Fluoro-6,9-dimethyl-8-oxo-6,7,8,9-tetrahydro-5-oxa-9-aza-benzocyclohepten-7-yl)-2-methyl-N′-(2,2,3,3,3-pentafluoro-propyl)-malonamide] showed a melting point of 126 to 134 °C.
In the case of `C[C@H](OC(=O)NCC(F)(F)C(F)(F)F)C(=O)N[C@@H]1C(=O)N(C)c2cc(F)ccc2O[C@@H]1C` [Example 48, (2,2,3,3,3-Pentafluoro-propyl)-carbamic acid (S)-1-((6R,7S)-2-fluoro-6,9-dimethyl-8-oxo-6,7,8,9-tetrahydro-5-oxa-9-aza-benzocyclohepten-7-ylcarbamoyl)-ethyl ester], the melting point fell in the range of 148 to 150 °C.
To `CC(C(=O)NCC(F)(F)C(F)(F)F)C(=O)N[C@@H]1C(=O)N(C)c2cc(F)ccc2O[C@@H]1C` (stereo partly drawn) [Example 38, N-((6R,7S)-2-Fluoro-6,9-dimethyl-8-oxo-6,7,8,9-tetrahydro-5-oxa-9-aza-benzocyclohepten-7-yl)-2-methyl-N′-(2,2,3,3,3-pentafluoro-propyl)-malonamide] belongs 126 to 134 °C; to `Cc1cccc2c1OC[C@H](NC(=O)C(C)C(=O)NCC(F)(F)C(F)(F)F)C(=O)N2C` (stereo partly drawn) [Example 10b, N-((S)-4,9-Dimethyl-8-oxo-6,7,8,9-tetrahydro-5-oxa-9-aza-benzocyclohepten-7-yl)-2-methyl-N′-(2,2,3,3,3-pentafluoro-propyl)-malonamide], 107 °C.

For the origin of these results see patent publication US7211573B2, “Malonamide derivatives” (Hoffmann-La Roche Inc., priority 2004, dated 2007).
